Read-outs that look alike come from different tables or passages of the source. Non-standard residues stand in square brackets, D forms with d. Residues, ends and D or L forms follow the SMILES beside them.

Series [1] has as its system EGFR and HER2 transactivation. To be noted: cited from earlier work.
The next series has as its system CCLE NSCLC cell lines. The series is described as follows: Average IC50 and EC50 of selected compounds in PRISM drug screening data. The class given is cell-based, human. To be noted: for EC50 / IC50: PRISM dataset, NSCLC cell lines, outliers (drug concentration value > 10) removed. From the text:
The drug sensitivity data of human NSCLC cell lines were taken from multiple resources. The secondary PRISM repurposing dataset was obtained from the DepMap release 19Q4. […] A total of 64 NSCLC cell lines from GDSC1 and 58 NSCLC cell lines from GDSC2 were included in this study. Details of the categorization of drug sensitivity in each cell line were included in our previous publications.

Series [2] has as its system human NSCLC A549 and NCI-H358 cells. To be noted: cited from earlier work.
Another series deals with NSCLC H460 cells. To be noted: in-vitro and in-vivo; cited from earlier work.
Series [3] deals with NSCLC cells. To be noted: cited from earlier work.
For series [4], the system named is NSCLC cells. To be noted: cited from earlier work. This is another data set of the same source.
The test system of a further series is non-progressing NSCLC. The settings on record: maintenance therapy, linsitinib added to erlotinib; cited from earlier work.
In a further series the test system is NSCLC. To be noted: linsitinib added to erlotinib, compared with erlotinib alone; cited from earlier work.
The test system of series [5] is late-stage, metastatic, Kras-mutant NSCLC. To be noted: compared with various combination therapies, chemo-, and immune therapy; cited from earlier work.
The subject of another series is U87MG glioma cells. To be noted: cited from earlier work.
The subject of the next series is glioma tumor. The settings on record: mouse xenograft model; cited from earlier work.
Another series deals with U2OS and 143B lines. To be noted: cited from earlier work.
The subject of series [6] is oxidative phosphorylation. To be noted: mitochondrial protonophore; cited from earlier work.
In series [7] the test system is Ki-ras-transformed rat fibroblasts. The settings on record: concurrent suppression of ERK and mTOR-p70(S6K) pathways; cited from earlier work.
Series [8] concerns human breast cancer MDA-MB-231 and HBC-4 cells. The settings on record: cited from earlier work.
The test system of series [9] is endogenous promoters containing activator protein 1 (AP-1) response elements. The settings on record: genes lacking an AP-1 response element not affected; cited from earlier work.
For series [10], the system named is phosphorylated extracellular signal-regulated kinase (pERK). To be noted: patients with locally advanced/metastatic melanoma; clinically relevant doses; phase I; cited from earlier work.
In a further series the test system is pERK. To be noted: patients with solid tumors; phase I; cited from earlier work.
The subject of a further series is trophoblast. To be noted: fetal growth restriction; cited from earlier work.
The test system of the next series is refractory NSCLC. To be noted: refractory NSCLC patients; open-label phase II; cited from earlier work.
Where [11] appears, read: BMS-754807 alone, A549 and NCI-H358.
Where [12] appears, read: induced by addition of ET-1 to NSCLC cells.

`CS(=O)(=O)CCNCc1ccc(-c2ccc3ncnc(Nc4ccc(OCc5cccc(F)c5)c(Cl)c4)c3c2)o1` [Lapatinib]: in [1], the “increase in EGFR and HER2 transactivation” value (shortened to “increase”) is listed as “inhibited”.
Take `C[C@@]1(C(=O)Nc2ccc(F)nc2)CCCN1c1nc(Nc2cc(C3CC3)n[nH]2)c2cccn2n1` [BMS-754807]: in the series with CCLE NSCLC cell lines (Homo sapiens), the EC50 was 1.02 µM and it took 1.74 µM to reach half-maximal inhibition (IC50). The “effect on cisplatin and carboplatin” value in [2] (A549 cells) is “enhanced”. In [2] (setting [11]), the apoptosis result was “enhanced”; the “cell survival and wound closure” value is listed as “reduced”.
Consider `O=S(=O)(O)c1cc(O)c(O)c(S(=O)(=O)O)c1` [Tiron], for which the “increase” value in series [1] (setting [12]) is on record as “inhibited”.
Take `CN1CC[C@]23c4c5ccc(O)c4O[C@H]2[C@@H](O)C=C[C@H]3[C@H]1C5` [Morphine]: the “growth of NSCLC H460 cells” value with NSCLC H460 cells is reported as “promoted”.
In the series with CCLE NSCLC cell lines (Homo sapiens), `O=C1Nc2ccccc2/C1=C1/Nc2ccccc2C1=O` [indirubin] showed an EC50 of 0.63 µM and an IC50 of 3.55 µM.
The matching figures for `Cc1nc(Nc2ncc(C(=O)Nc3c(C)cccc3Cl)s2)cc(N2CCN(CCO)CC2)n1` [dasatinib]: 0.504 µM and 0.555 µM.
In the series on CCLE NSCLC cell lines, `COc1cccc(-c2cc(=O)c3ccccc3o2)c1N` [PD-98059] showed an EC50 of 0.607 µM and an IC50 of 4.98 µM.
In the series with CCLE NSCLC cell lines, `O=C(NOCC1CC1)c1ccc(F)c(F)c1Nc1ccc(I)cc1Cl` [PD-184352] registered an EC50 of 2.19 µM and an IC50 of 3.99 µM.
As for `CC(C)C[C@@H]1NC(=O)[C@@H](C(C)C)NC(=O)[C@@H]2CCCN2C(=O)[C@@H](CC(=O)O)NC(=O)[C@@H](Cc2c[nH]c3ccccc23)NC1=O` [BQ-123] (cyclo(L[dW][dD]P[dV])), the “increase” value in series [1] (setting [12]) is “inhibited”.
As to `CNC(=O)[C@H](Cc1c[nH]c2ccccc12)NC(=O)[C@@H](CC(=O)NO)CC(C)C` [GM6001], the “increase” value in series [1] (setting [12]) is recorded as “inhibited”.
Consider `COc1nc(C)cnc1NS(=O)(=O)c1cccnc1-c1ccc(-c2nnco2)cc1` [ZD4054], for which the “increase” value in series [1] (setting [12]) is reported as “inhibited”.
Turning to `N#CC(=C(N)Sc1ccc(N)cc1)c1ccccc1C(F)(F)F` [MEK1-2-inhibitor], in the series with CCLE NSCLC cell lines, a half-maximal response (EC50) required 2.2 µM and 4.2 µM corresponded to half-maximal inhibition (IC50).
In the series on CCLE NSCLC cell lines, `CC(C)(C)n1nc(-c2ccc(Cl)cc2)c2c(N)ncnc21` [PP-2] showed an EC50 of 2.48 µM and an IC50 of 3.19 µM. Also, the “increase” value in series [1] (setting [12]) was “inhibited”.
For the compound `C[N@+]1(CC2CC2)CC[C@]23c4c5ccc(O)c4O[C@H]2C(=O)CC[C@@]3(O)[C@H]1C5` [methylnaltrexone], the “phosphorylation induced by morphine” value in the series with NSCLC cells [3] is reported as “decreased”. The “antiapoptotic impact of morphine” value with NSCLC cells [4] was “reversed”.
In the series on CCLE NSCLC cell lines (Homo sapiens), `C[C@]1(O)C[C@@H](c2nc(-c3ccc4ccc(-c5ccccc5)nc4c3)c3c(N)nccn32)C1` [linsitinib] displayed an EC50 of 2.09 µM and an IC50 of 4.25 µM. The “PFS or OS” value in the series on non-progressing NSCLC was “did not improve”. The patient outcomes in the series with NSCLC is recorded as “worse patient outcomes”.
In the series with CCLE NSCLC cell lines, `Cc1ccc(-c2nn(C(C)(C)C)c3ncnc(N)c23)cc1` [PP-1] yielded a concentration giving a half-maximal response (EC50) of 2.08 µM and an IC50 of 3.41 µM. The “phosphorylation induced by morphine” value in the series with NSCLC cells [3] is listed as “decreased”. The “antiapoptotic impact of morphine” value in the series with NSCLC cells [4] is given as “reversed”.
With `COc1cc(Nc2c(C#N)cnc3cc(OCCCN4CCN(C)CC4)c(OC)cc23)c(Cl)cc1Cl` [bosutinib], in the series on CCLE NSCLC cell lines (Homo sapiens), the midpoint of the response, the EC50, lay at 1.59 µM and the IC50 was determined as 3.16 µM.
Consider `Cn1cnc2c(F)c(Nc3ccc(Br)cc3Cl)c(C(=O)NOCCO)cc21` [selumetinib], for which, in the series with CCLE NSCLC cell lines (Homo sapiens), the EC50 worked out at 0.647 µM and the IC50 was 2.21 µM. The “safety profile in treating NSCLC” value in series [5] was “better safety profile”.
As for `COc1ccc(Cl)cc1NC(=O)Nc1cc(C)nc2ccccc12` [PQ-401], in the series with CCLE NSCLC cell lines (Homo sapiens), the EC50 was 2.2 µM and the IC50 worked out at 5.34 µM. In addition, in the series on U87MG glioma cells, the apoptosis result is “induces”; the “in-vitro viability, proliferation, and mobility” value was “inhibits”. In addition, in the series with glioma tumor, the “in-vivo glioma tumor growth” value is “inhibits”. Moreover, the “osteosarcoma cell proliferation, migration, and colony formation” value in the series on U2OS and 143B lines was “inhibits”.
In the series with CCLE NSCLC cell lines (Homo sapiens), `Cc1cc(I)ccc1Nc1c(C(=O)NOCC2CC2)cc(F)c(F)c1F` [PD-198306] had an EC50 of 2.03 µM and an IC50 of 3.16 µM. For the same compound, the oxidative phosphorylation result in series [6] is on record as “uncouples”.
In the series on CCLE NSCLC cell lines (Homo sapiens), `N#CC(=C(/N)Sc1ccccc1N)/C(C#N)=C(\N)Sc1ccccc1N` [U-0126] gave an EC50 of 1.87 µM and an IC50 of 4.53 µM. For the same compound, the anchorage-independent growth entry in series [7] is “inhibits”. For the same compound, in series [8], the sensitivity to anoikis entry is given as “sensitizes”. Further, the “endogenous promoters containing AP-1 response elements” value in series [9] is “inhibits”.
In the series on CCLE NSCLC cell lines (Homo sapiens), `CN1CCN(CCOc2cc(OC3CCOCC3)c3c(Nc4c(Cl)ccc5c4OCO5)ncnc3c2)CC1` [saracatinib] showed an EC50 of 0.983 µM and an IC50 of 1.73 µM.
In the series with CCLE NSCLC cell lines (Homo sapiens), `O=C(NC[C@H](O)CO)c1ccncc1Nc1ccc(I)cc1F` [AS-703026, pimasertib] returned an EC50 of 0.94 µM and an IC50 of 1.51 µM. Also, the “pERK in peripheral blood mononuclear cells” value in series [10] was “inhibition”. For the same compound, the pERK entry with pERK is on record as “inhibited”.
`COc1cc2ncnc(Nc3ccc(Cl)cc3F)c2cc1OC` [ZM-306416]: in the series with CCLE NSCLC cell lines (Homo sapiens), the EC50 amounted to 1.08 µM and the IC50 was 2.63 µM. Also, in the series with trophoblast, the “trophoblast proliferation and migration” value is “impaired”.
Turning to `COc1cc2c(cc1OC)[C@@H]1C(=O)c3ccc4c(c3O[C@@H]1CO2)C=CC(C)(C)O4` [deguelin], the “antiapoptotic impact of morphine” value in the series with NSCLC cells [4] is recorded as “reversed”.
For the compound `O=C(NOC[C@H](O)CO)c1ccc(F)c(F)c1Nc1ccc(I)cc1F` [PD-0325901], in the series on CCLE NSCLC cell lines, the concentration for a half-maximal effect (EC50) was 0.386 µM and the IC50 amounted to 0.748 µM. Also, the “average IC50 and EC50 values (in words)” value with CCLE NSCLC cell lines (PRISM drug screening data) was “small”. In addition, the primary endpoint entry in the series on refractory NSCLC was “did not meet”.

For orientation: EC50 means the concentration that produces a half-maximal response. A lower EC50 goes with higher potency in that assay. The IC50 is the midpoint of a concentration-inhibition curve. Low values mean greater potency in that assay, high ones weaker potency in that assay.

The record behind these values is patent US20240200147A1, “Non-Small Cell Lung Cancer Diagnosis and Treatment” (West Virginia University Board of Governors on Behalf of …, priority 2022, published 2024).
